Test results reported in ChEMBL document CHEMBL3769323, “Design, synthesis and bioevaluation of tacrine hybrids with cinnamate and cinnamylidene acetate derivatives as potential anti-Alzheimer drugs” (Medchemcomm, 2015).
pEC50, pIC50: −log10 of the molar value. Calls of active or inactive are those of the source. The calls are words filed in the database; no cut-off is given here.

Columns and labels:
Acetylcholinesterase = Acetylcholinesterase (Electrophorus electricus, UniProt O42275); experiment: Inhibition of electric eel AChE preincubated for 15 mins followed by addition of acetylcholine iodide as substrate by Ellman's assay
Acetylcholinesterase, sequence (O42275 whole entry): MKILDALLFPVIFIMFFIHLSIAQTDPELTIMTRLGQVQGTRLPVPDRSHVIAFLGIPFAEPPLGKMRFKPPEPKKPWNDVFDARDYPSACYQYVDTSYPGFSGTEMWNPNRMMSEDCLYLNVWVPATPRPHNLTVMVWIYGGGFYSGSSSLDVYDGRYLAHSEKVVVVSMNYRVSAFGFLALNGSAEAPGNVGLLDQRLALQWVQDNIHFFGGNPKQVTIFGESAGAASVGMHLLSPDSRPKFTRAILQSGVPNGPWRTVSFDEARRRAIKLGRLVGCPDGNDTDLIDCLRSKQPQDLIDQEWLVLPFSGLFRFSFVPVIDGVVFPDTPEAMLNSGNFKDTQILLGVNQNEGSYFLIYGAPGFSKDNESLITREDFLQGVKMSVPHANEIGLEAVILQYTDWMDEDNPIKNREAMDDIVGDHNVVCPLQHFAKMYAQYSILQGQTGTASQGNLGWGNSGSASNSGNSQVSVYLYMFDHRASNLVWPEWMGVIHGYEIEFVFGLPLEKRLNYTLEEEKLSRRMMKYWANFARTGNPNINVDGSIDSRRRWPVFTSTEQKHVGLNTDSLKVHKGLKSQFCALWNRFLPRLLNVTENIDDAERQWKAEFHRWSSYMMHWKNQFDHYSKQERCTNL

[1] = Antioxidant activity assessed as DPPH radical scavenging activity after 30 mins; format: physicochemical
SH-SY5Y [2] = experiment: Cytotoxicity against human SH-SY5Y cells assessed as cell viability at 1.5 to 5 uM after 25 hrs by MTT assay; format: cell-based
[3] = Antioxidant activity assessed as DPPH radical scavenging activity at 1 mM after 30 mins; format: physicochemical; conditions: 0.5 h, 1000 µM
SH-SY5Y [4] = experiment: Cytotoxicity against human SH-SY5Y cells assessed as cell viability at 1.5 uM after 25 hrs by MTT assay relative to control; format: cell-based
SH-SY5Y [5] = experiment: Neuroprotective activity against human SH-SY5Y cells assessed as reduction of Amyloid beta 42-induced cytotoxicity at 2.5 uM preincubated with compound for 1 hr followed by Amyloid beta 42 peptide addition for 24 hrs by MTT reduction assay; format: functional, cell-based
[6] = Cytotoxicity against ovarian cancer cells (unknown origin); format: cell-based; conditions: Cancer cell lines
[7] = target: Amyloid-beta precursor protein (Homo sapiens) (UniProt P05067); experiment: Inhibition of Amyloid beta (1 to 42) (unknown origin) self-induced aggregation at 80 uM for 24 hrs by Thioflavin T-based fluorometric assay
Amyloid-beta precursor protein (Homo sapiens), sequence (P05067 whole entry): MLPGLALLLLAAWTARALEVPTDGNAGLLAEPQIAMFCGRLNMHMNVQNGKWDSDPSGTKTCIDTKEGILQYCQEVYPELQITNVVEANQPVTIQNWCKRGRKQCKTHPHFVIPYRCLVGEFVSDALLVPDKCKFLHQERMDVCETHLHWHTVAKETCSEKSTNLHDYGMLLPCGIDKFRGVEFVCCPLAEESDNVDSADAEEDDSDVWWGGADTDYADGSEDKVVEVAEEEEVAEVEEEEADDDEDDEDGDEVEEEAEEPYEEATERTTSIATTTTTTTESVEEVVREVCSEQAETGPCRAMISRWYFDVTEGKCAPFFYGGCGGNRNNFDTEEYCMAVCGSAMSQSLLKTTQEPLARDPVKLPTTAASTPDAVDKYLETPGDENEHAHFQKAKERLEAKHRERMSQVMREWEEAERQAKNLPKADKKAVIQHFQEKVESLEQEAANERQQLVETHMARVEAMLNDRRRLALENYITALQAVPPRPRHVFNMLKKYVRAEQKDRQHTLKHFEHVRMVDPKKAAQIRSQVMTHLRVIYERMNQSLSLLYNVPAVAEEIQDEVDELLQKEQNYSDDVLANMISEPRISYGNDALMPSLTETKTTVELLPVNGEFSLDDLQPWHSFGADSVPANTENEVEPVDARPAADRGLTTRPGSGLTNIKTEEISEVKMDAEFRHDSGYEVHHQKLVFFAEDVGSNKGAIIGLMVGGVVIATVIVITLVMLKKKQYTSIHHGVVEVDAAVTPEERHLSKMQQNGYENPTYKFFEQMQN

SH-SY5Y [8] = experiment: Neuroprotective activity against human SH-SY5Y cells assessed as reduction of H2O2-induced oxidative stress at 5 uM preincubated with compound for 1 hr followed by H2O2 addition for 24 hrs by MTT reduction assay; format: functional, cell-based
SH-SY5Y [9] = experiment: Neuroprotective activity against human SH-SY5Y cells assessed as reduction of H2O2-induced oxidative stress at 2.5 uM preincubated with compound for 1 hr followed by H2O2 addition for 24 hrs by MTT reduction assay; format: functional, cell-based
SH-SY5Y [10] = experiment: Cytotoxicity against human SH-SY5Y cells assessed as cell viability at 2.5 uM after 25 hrs by MTT assay relative to control; format: cell-based

O=C(/C=C/C=C/c1ccc(O)c(O)c1)NCCCNc1c2c(nc3ccccc13)CCCC2
pIC50 (Acetylcholinesterase): 6.32
pEC50 [1]: 5.04
Activity (SH-SY5Y [2]): Non-toxic

O=C(/C=C/C=C/c1ccc2c(c1)OCO2)NCCNc1c2c(nc3ccccc13)CCCC2
pIC50 (Acetylcholinesterase): 6.52
Activity [3]: 26.2%
Activity (SH-SY5Y [2]): Toxic
Activity (SH-SY5Y [4]): Toxic

COc1ccc(/C=C/C(=O)NCCCCNc2c3c(nc4ccccc24)CCCC3)cc1OC
pIC50 (Acetylcholinesterase): 6.41
Activity [3]: 16.1%

O=C(/C=C/c1ccccc1)NCCCCNc1c2c(nc3ccccc13)CCCC2
pIC50 (Acetylcholinesterase): 6.07
Activity [3]: 22.5%
Activity (SH-SY5Y [5]): Active

O=C(/C=C/C=C/c1ccc2c(c1)OCO2)NCCCNc1c2c(nc3ccccc13)CCCC2
pIC50 (Acetylcholinesterase): 6.89
Activity [3]: 20.8%
pIC50 [6]: 5.60
inhibition [7]: 72.2%
Activity (SH-SY5Y [2]): Toxic

O=C(/C=C/c1ccc2c(c1)OCO2)NCCCNc1c2c(nc3ccccc13)CCCC2
pIC50 (Acetylcholinesterase): 6.89
Activity [3]: 15.4%
pIC50 [6]: 5.24
inhibition [7]: 8.27%
Activity (SH-SY5Y [2]): Toxic

O=C(/C=C/c1ccc2c(c1)OCO2)NCCCCNc1c2c(nc3ccccc13)CCCC2
pIC50 (Acetylcholinesterase): 6.14
Activity [3]: 18.6%
Activity (SH-SY5Y [2]): Toxic

O=C(/C=C/C=C/c1ccc(O)c(O)c1)NCCNc1c2c(nc3ccccc13)CCCC2
pIC50 (Acetylcholinesterase): 5.96
pEC50 [1]: 5.02
Activity (SH-SY5Y [2]): Non-toxic
Activity (SH-SY5Y [8]): Active

O=C(/C=C/C=C/c1ccccc1)NCCNc1c2c(nc3ccccc13)CCCC2
pIC50 (Acetylcholinesterase): 6.49
Activity [3]: 15.6%
Activity (SH-SY5Y [2]): Toxic
Activity (SH-SY5Y [4]): Toxic

COc1ccc(/C=C/C(=O)NCCCNc2c3c(nc4ccccc24)CCCC3)cc1OC
pIC50 (Acetylcholinesterase): 7.05
Activity [3]: 16.8%
pIC50 [6]: 4.71
inhibition [7]: 56.5%
Activity (SH-SY5Y [9]): Active

O=C(/C=C/c1ccccc1)NCCNc1c2c(nc3ccccc13)CCCC2
pIC50 (Acetylcholinesterase): 6.11
Activity [3]: 7.9%
Activity (SH-SY5Y [2]): Toxic

O=C(/C=C/c1ccc(O)c(O)c1)NCCCNc1c2c(nc3ccccc13)CCCC2
pIC50 (Acetylcholinesterase): 6.01
pEC50 [1]: 4.95
Activity (SH-SY5Y [2]): Toxic
Activity (SH-SY5Y [8]): Active

O=C(/C=C/C=C/c1ccccc1)NCCCNc1c2c(nc3ccccc13)CCCC2
pIC50 (Acetylcholinesterase): 6.54
Activity [3]: 16.9%
Activity (SH-SY5Y [2]): Toxic

O=C(/C=C/C=C/c1ccccc1)NCCCCNc1c2c(nc3ccccc13)CCCC2
pIC50 (Acetylcholinesterase): 6.21
Activity [3]: 23%
Activity (SH-SY5Y [4]): Toxic

COc1ccc(/C=C/C(=O)NCCNc2c3c(nc4ccccc24)CCCC3)cc1OC
pIC50 (Acetylcholinesterase): 7.05
Activity [3]: 8.8%
pIC50 [6]: 4.98
inhibition [7]: 19.6%
Activity (SH-SY5Y [5]): Active
Activity (SH-SY5Y [9]): Active

O=C(/C=C/c1ccc2c(c1)OCO2)NCCNc1c2c(nc3ccccc13)CCCC2
pIC50 (Acetylcholinesterase): 6.74
Activity [3]: 12.2%
inhibition [7]: 30.9%
Activity (SH-SY5Y [2]): Toxic

O=C(/C=C/c1ccc(O)c(O)c1)NCCNc1c2c(nc3ccccc13)CCCC2
pIC50 (Acetylcholinesterase): 6.08
pEC50 [1]: 4.91
Activity (SH-SY5Y [2]): Toxic

O=C(/C=C/c1ccccc1)NCCCNc1c2c(nc3ccccc13)CCCC2
pIC50 (Acetylcholinesterase): 6.42
Activity [3]: 16.3%
Activity (SH-SY5Y [2]): Toxic
Activity (SH-SY5Y [10]): Toxic
